Values joined by “and” are separate entries in the source; they are usually repeats but may differ in a detail not shown here. Identical values can stand only once. Values belong to the compound of their own block, whether it stands above or below them.
Assays:
[1] = biological target: type 2 vesicular transporter (VMAT2) (Homo sapiens, UniProt Q05940); conditions: cited from earlier work
[2] = dogs, previous studies; cited from earlier work
[3] = primate models; cited from earlier work
[4] = Static PET imaging of ^52Mn^2+ biodistribution in normal mice; type: in vivo, ICR mice
Protocol: The acquisition of PET images was performed in the Inveon μPET/μCT scanner (Siemens Preclinical Solutions, Knoxville, Tenn.). To study the long-term biodistribution and clearance of ^52Mn^2+ in the mouse body, approximately 3.7 MBq (100 μCi) of ^52Mn^2+ was injected intravenously (IV) in female ICR mice. […] Before each scan, mice were anesthetized with isoflurane (4% induction; 1% maintenance) and placed in the scanner in prone position. 30×10^6-40×10^6 coincidence events per mouse static PET scans were acquired (time window, 3.432 ns; energy window, 350-650 keV) and the PET images were reconstructed in Inveon Acquisition Workplace (Siemens Preclinical Solutions, Knoxville, Tenn.) workstation using a non-scatter-corrected three-dimensional Ordered Subset Expectation […]/Maximum a Posteriori (OSEM3D/MAP) algorithm. Region-of-interest (ROI) analysis was performed after organs were manually delineated on the PET images. Tissue uptake values were reported as standardized uptake value (SUV), which is normalized to whole body radiomanganese concentration.

[5] = as above; type: in vivo, ICR mice; conditions: healthy mice, IV, peaked within minutes following administration
[6] = test system: isolated ob/ob mouse islets; assay: Uptake of ^52Mn^2+ in isolated islets under stimulatory or inhibitory conditions; type: cell-based; conditions: low glucose (1 mM), 370 kBq ^52Mn^2+
Protocol: Mouse pancreatic islets were isolated by collagenase digestion. Briefly, mice were placed under shallow anesthesia and sacrificed via cervical dislocation. The mouse common bile duct was cannulized and 3-5 mL of an ice-cold solution containing type XI collagenase (0.5 mg/mL; Sigma Aldrich, St. Louis, Mo.) and bovine serum albumin (BSA; 0.2 mg/mL; Sigma Aldrich, St. Louis, Mo.) in Hank's balanced salt solution (HBSS; Invitrogen, Carlsbad, Calif.) was injected into the mouse pancreas. After inflation, the pancreas was removed, placed in a glass vial containing 5 mL of the collagenase solution, and incubated in a shaking water bath at 37° C. Samples were digested for approximately 30 min after which the digests were centrifuged at 50×g for 2 min and islet pellets were washed three times with 30 mL of an ice-cold BSA (0.2 mg/mL) in HBSS solution. The pellet was resuspended and islets handpicked into 35 mm petri dishes. Following isolation, islets were placed in RPMI1640 media supplemented with penicillin (100 U/mL; Invitrogen), streptomycin (100 μg/mL; Invitrogen), and FBS [10% (wt/vol); Sigma] and incubated overnight at 37° C. in a 5% CO2 atmosphere.
The uptake of ^52Mn^2+ by murine islets of Langerhans was determined under several stimulatory or inhibitory conditions. Batches of 50 islets were transferred into 0.45 μm filtered bottom 1 mL centrifuge vials (Thermo Fisher Scientific, Grand Island, N.Y.), 500 μL of Krebs-Ringer buffer (KRB: 118 mM NaCl, 5.4 mM KCl, 2.4 mM CaCl, 1.2 mM MgSO4, 1 mM […], 20 mM HEPES; pH 7.4) containing a low glucose concentration (1 mM D-glucose) were added and the islets incubated for 30 min at 37° C. After removing the supernatant following centrifugation at 50×g for 5 min, 250 μL of KRB containing glucose, diazoxide (50 μM; Tocris Biosciences, Bristol, UK), or tolbutamide (250 μM; Selleckchem, Houston, Tex.) were added, and the vials were spiked with 370 kBq (10 μCi) of ^52Mn^2+. After 15 min of incubation, the solutions were filtered and islets were washed three times with KRB. The ^52Mn^2+ radioactivity in the islet pellets were measured in an automated gamma counter (Perkin Elmer).

[7] = ^52Mn^2+ PET in pre-type 2 diabetic ob/ob and lean C57BL/6J mice; type: in vivo
From the text: Given the altered glucose metabolism in obese mice, we compared the pancreatic uptake of ^52Mn^2+ in lean (wild-type) and obese (ob/ob) mice on the C57BL/6J background. For PET imaging, 0.74 MBq (20 μCi) of ^52Mn^2+ was IV injected into obese mice or lean controls one hour prior to PET scan acquisition. Subsequent ^52Mn^2+ accumulation in the pancreas and other organs of interest was quantified.

[8] = Ex vivo ^52Mn^2+ biodistribution by gamma counting after last PET scan; type: in vivo; conditions: ICR mice, ex vivo gamma counting 13 days after injection
Protocol: Ex vivo biodistribution studies were performed in all groups of mice in order to validate the results of PET imaging and obtain a more complete biodistribution profile of ^52Mn^2+. Following the last imaging time point, mice were euthanized by C02 asphyxiation and the organs of interest were removed, wet-weighed, and counted on an automated gamma-counter (Wizard 2480, Perkin Elmer). The tissue uptake of ^52Mn^2+ was reported as SUV (mean±SD).

[9] = ^52Mn^2+ PET and biodistribution in STZ type-1 diabetes model; type: in vivo, ICR mice
Protocol: Type 1 diabetes was induced in female ICR mice via a single IP injection of 180 mg/kg streptozotocin (STZ; MP Biomedical, LLC, Santa Ana, Calif.), a toxin that selectively destroys pancreatic beta cell. The injectable STZ solution (12.5 mg/mL) was prepared freshly in phosphate buffered saline (PBS). The weight of each mouse was measured daily, and blood glucose levels were recorded every other day with a glucometer (TRUEresult, Trividia Health Inc., Fort Lauderdale, Fla.) using blood samples collected from the tail vein. Mice were considered diabetic after two consecutive blood glucose readings above 250 mg/dL and were used for PET imaging studies one week after the injection of STZ. To evaluate ^52Mn^2+ pancreatic uptake on diabetic mice, 0.74 MBq (20 μCi) of activity were administered IV and static PET images recorded one hour after administration of the tracer. Ex vivo biodistribution was carried out following PET acquisition.

[10] = Dynamic PET of ^52Mn^2+ (rapid IV bolus or 30 min IV infusion) under isoflurane; type: in vivo, mice
Protocol: To acquire dynamic PET scans, mice were anesthetized with isoflurane and the lateral tail vein was catheterized. Simultaneous with the administration of approximately 1.7 MBq (50 μCi) of ^52Mn^2+ as a fast IV bolus, one-hour scans were recorded and list-mode files were binned into 46 frames (12×5 s, 6×10 s, 6×30 s, 10×60 s, 6×150 s, 6×300 s) and the images reconstructed using a non-scatter-corrected OSEM3D/MAP algorithm. In another study, 1.7 MBq (50 μCi) of ^52Mn^2 was continuously infused with a syringe pump (Kd Scientific, Model 780100) over a period of 30 min, starting at the beginning of the PET scan. List-mode files were framed into 30×2 min frames and reconstructed using the above-mentioned algorithm.

[11] = ICR mice, IV ^52Mn^2+, awake at injection, static PET 1 h post injection
[12] = rapid IV bolus, isoflurane throughout, 1 h post injection

Sequence of type 2 vesicular transporter (VMAT2) (Q05940 whole entry, species assumed): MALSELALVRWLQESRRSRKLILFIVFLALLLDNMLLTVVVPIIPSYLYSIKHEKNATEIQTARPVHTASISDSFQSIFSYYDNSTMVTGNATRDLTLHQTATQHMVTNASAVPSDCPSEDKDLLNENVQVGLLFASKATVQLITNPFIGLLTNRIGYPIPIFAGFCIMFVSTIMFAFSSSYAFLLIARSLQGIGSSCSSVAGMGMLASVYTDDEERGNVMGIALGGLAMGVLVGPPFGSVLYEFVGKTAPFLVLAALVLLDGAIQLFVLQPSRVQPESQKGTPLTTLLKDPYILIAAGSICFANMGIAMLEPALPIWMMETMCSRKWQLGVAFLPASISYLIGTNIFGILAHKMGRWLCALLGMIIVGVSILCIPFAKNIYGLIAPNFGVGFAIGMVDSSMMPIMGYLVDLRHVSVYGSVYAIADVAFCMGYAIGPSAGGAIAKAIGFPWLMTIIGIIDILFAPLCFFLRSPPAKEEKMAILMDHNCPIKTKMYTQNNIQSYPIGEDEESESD

SMILES: COc1cc2c(cc1OCCCF)CCN1CC(CC(C)C)C(O)CC21 (stereo not drawn) [FP-(+)-DTBZ]
affinity for VMAT2 [1]: high affinity

SMILES: [54Mn] [Mn-54]
blood clearance [2]: ~0.8 min

SMILES: COc1cc2c(cc1O[11CH3])CCN1CC(CC(C)C)C(O)CC21 (stereo not drawn) [[^11C]-DTBZ, [^11C]-Dihydrotetrabenazine]
pancreatic uptake [3]: very low

^52Mn^2+ uptake in heart (PET ROI) [4, 11]: 2.11±0.20 SUV
^52Mn^2+ uptake in kidneys (PET ROI) [4, 11]: 5.13±0.02 SUV
^52Mn^2+ uptake in liver (PET ROI) [4, 11]: 3.27±0.36 SUV and 3.27±0.34 SUV
^52Mn^2+ uptake in muscle (PET ROI) [4, 11]: 0.38±0.03 SUV
^52Mn^2+ uptake in pancreas (PET ROI) [4, 11]: 5.13±0.38 SUV and 5.13±0.36 SUV
^52Mn^2+ uptake in salivary glands (PET ROI) [4, 11]: 2.30±0.26 SUV
^52Mn^2+ uptake in salivary gland at subsequent time points ([4]; ICR mice, longitudinal PET after 1 h up to 13 days post injection): around 3 SUV
pancreas clearance half-life of ^52Mn^2+ ([4]; healthy mice, IV): approximately 8 days
^52Mn^2+ uptake in the pancreas at peak [5]: 5-6 SUV
^52Mn^2+ uptake in liver, lean mice ([7]; lean C57BL/6J, 1 h): 3.40±0.73 SUV
^52Mn^2+ uptake in salivary gland, lean mice ([7]; lean C57BL/6J, 1 h): 3.11±1.05 SUV
^52Mn^2+ pancreatic uptake, lean mice ([7]; lean C57BL/6J, PET 1 h after administration): 4.89±0.68 SUV
^52Mn^2+ uptake in liver, obese mice ([7]; ob/ob C57BL/6J, 1 h): 3.68±0.25 SUV
^52Mn^2+ uptake in salivary gland, obese mice ([7]; ob/ob C57BL/6J, 1 h): 2.40±0.20 SUV
^52Mn^2+ pancreatic uptake, ob/ob mice ([7]; pre-type 2 diabetic ob/ob C57BL/6J, PET 1 h after administration): 7.27±1.03 SUV
^52Mn^2+ uptake in other organs (brain, lungs, bones, intestines, stomach, spleen) [8]: less than 0.5 SUV
^52Mn^2+ uptake in pancreas of diabetic mice (PET ROI) ([9]; STZ (180 mg/kg) diabetic ICR mice, 1 h post injection, normal mice 5.13±0.38 SUV): 2.04±0.81 SUV
decrease in pancreatic accumulation of ^52Mn^2+, ex vivo biodistribution ([9]; STZ-diabetic vs normal ICR mice): > 58%
reduction in the pancreatic accumulation of ^52Mn^2+ ([9]; STZ-induced type-1 diabetes model vs normal): ~60%
^52Mn^2+ uptake in pancreas, continuous infusion ([10]; IV infusion over 30 min, isoflurane): 3.44±0.69 SUV
^52Mn^2+ uptake in kidney, continuous infusion ([10]; IV infusion over 30 min, isoflurane, 1 h post injection): 5.14±1.21 SUV
reduction in pancreatic uptake, dynamic vs static PET ([10]; rapid IV bolus under isoflurane vs awake injection, 1 h post injection): ~50%
time until uptake stabilized in organs of interest ([10]; rapid IV bolus, dynamic PET): within five minutes
blood circulation half-life ([10]; rapid IV bolus, from myocardial TAC of dynamic PET): 10.7 ± 3.5 s
^52Mn^2+ uptake in heart, dynamic PET [10, 12]: 2.60±0.41 SUV
^52Mn^2+ uptake in kidneys, dynamic PET [10, 12]: 7.81±0.51 SUV
^52Mn^2+ uptake in liver, dynamic PET [10, 12]: 5.16±1.46 SUV
^52Mn^2+ uptake in muscle, dynamic PET [10, 12]: 0.16±0.02 SUV
^52Mn^2+ uptake in pancreas, dynamic PET [10, 12]: 2.74±0.59 SUV
SMILES: [52Mn+2] [^52Mn^2+]
^52Mn^2+ uptake by islets under resting conditions [6]: readily taken up

Reference: patent US20180271470A1, “METHODS FOR QUANTIFYING PANCREATIC BETA CELL FUNCTION AND MASS PROPERTIES WITH RADIOMANGANESE POSITRON EMISSION TOMOGRAPHY” (Wisconsin Alumni Research Foundation, priority 2017, published 2018)
